Test results reported in patent publication US6492559B1, “Alkylated aminoether surfactants” (Air Products and Chemicals, Inc., priority 1998, dated 2002).

Key:
Type in all cases: physicochemical
[1] = Dynamic surface tension of aqueous solutions, maximum bubble pressure method
Excerpt: where n is 2-6, preferably 2-4; m is 0-4, preferably 0-2; and p and q are 2-6, preferably 2 or 3; and R and R′ independently are an alkyl group comprising 5 to 18 carbons, preferably 5 to 8 carbons which is branched or in which the point of attachment to nitrogen is on a nonterminal carbon, for the reduction of equilibrium and dynamic surface tension in water-based compositions containing an organic compound, particularly coating, ink, and agricultural compositions containing organic compounds such as polymeric resins, herbicides, pesticides or plant growth modifying agents. […] The maximum-bubble-pressure method of measuring surface tension is described in Langmuir 1986, 2, 428-432, which is incorporated by reference.
Dynamic surface tension data were obtained for aqueous solutions of the reductive alkylation product of the dialkylated aminoethylether of Example 1 using the maximum bubble pressure method at bubble rates from 0.1 bubbles/second (b/s) to 20 b/s. […] In practical terms, high bubble rates correspond to high printing speeds in lithographic printing, high spray or roller velocities in coating applications, and rapid application rates for agricultural products.

[2] = Solubility in water
[3] = Foam test based upon ASTM D 1173-53; settings: 0.1 wt % solution
Description: The foaming properties of 0.1 wt % solutions of the reductive alkylation products of the products of this invention were examined using a procedure based upon ASTM D 1173-53. In this test, a 0.1 wt % solution of the surfactant is added from an elevated foam pipette to a foam receiver containing the same solution. The foam height is measured at the completion of the addition (“Initial Foam Height”) and the time required for the foam to dissipate is recorded (“Time to 0 Foam”). This test provides a comparison between the foaming characteristics of various surfactant solutions. In general, in coatings, inks, and agricultural formulations, foam is undesirable because is complicates handling and can lead to coating and print defects, and to inefficient application of agricultural materials.

Row | Compound | Dynamic Surface Tension ([1]; 0.1 wt % in water, 0.1 b/s) | Dynamic Surface Tension ([1]; 0.1 wt % in water, 1 b/s) | Dynamic Surface Tension ([1]; 0.1 wt % in water, 6 b/s) | Dynamic Surface Tension ([1]; 0.1 wt % in water, 15 b/s) | Dynamic Surface Tension ([1]; 0.1 wt % in water, 20 b/s) | Dynamic Surface Tension ([1]; 0.15 wt % in water, 0.1 b/s) | Dynamic Surface Tension ([1]; 0.15 wt % in water, 1 b/s) | Dynamic Surface Tension ([1]; 0.15 wt % in water, 6 b/s) | Dynamic Surface Tension ([1]; 0.15 wt % in water, 15 b/s) | Dynamic Surface Tension ([1]; 0.15 wt % in water, 20 b/s) | Dynamic Surface Tension ([1]; 0.2 wt % in water, 0.1 b/s) | Dynamic Surface Tension ([1]; 0.2 wt % in water, 1 b/s) | Dynamic Surface Tension ([1]; 0.2 wt % in water, 6 b/s) | Dynamic Surface Tension ([1]; 0.2 wt % in water, 15 b/s) | Dynamic Surface Tension ([1]; 0.2 wt % in water, 20 b/s) | Initial Foam Height [3] | Time to 0 Foam [3] | Dynamic Surface Tension ([1]; 0.5 wt % in water, 0.1 b/s) | Dynamic Surface Tension ([1]; 0.5 wt % in water, 1 b/s) | Dynamic Surface Tension ([1]; 0.5 wt % in water, 6 b/s) | also measured
1 | CC(C)CC(C)NCCOCCNC(C)CC(C)C (stereo not shown) [AEE/MIBK2] | 30.3 dyne/cm | 30.8 dyne/cm | 31.8 dyne/cm | 33.4 dyne/cm | 34.1 dyne/cm | 27.6 dyne/cm | 27.9 dyne/cm | 28.7 dyne/cm | 30.1 dyne/cm | 30.6 dyne/cm | 26.7 dyne/cm | 26.9 dyne/cm | 27.4 dyne/cm | 28.8 dyne/cm | 29.3 dyne/cm | – | – | – | – | – | Dynamic Surface Tension ([1]; 0.03 wt % in water, 0.1 b/s): 37.9 dyne/cm; Dynamic Surface Tension ([1]; 0.03 wt % in water, 1 b/s): 39.0 dyne/cm; Dynamic Surface Tension ([1]; 0.03 wt % in water, 6 b/s): 42.8 dyne/cm; Dynamic Surface Tension ([1]; 0.03 wt % in water, 15 b/s): 47.9 dyne/cm; Dynamic Surface Tension ([1]; 0.03 wt % in water, 20 b/s): 48.2 dyne/cm; Dynamic Surface Tension ([1]; 0.05 wt % in water, 0.1 b/s): 34.7 dyne/cm; Dynamic Surface Tension ([1]; 0.05 wt % in water, 1 b/s): 35.4 dyne/cm; Dynamic Surface Tension ([1]; 0.05 wt % in water, 6 b/s): 37.6 dyne/cm; Dynamic Surface Tension ([1]; 0.05 wt % in water, 15 b/s): 40.9 dyne/cm; Dynamic Surface Tension ([1]; 0.05 wt % in water, 20 b/s): 41.9 dyne/cm; Dynamic Surface Tension ([1]; 0.07 wt % in water, 0.1 b/s): 32.4 dyne/cm; Dynamic Surface Tension ([1]; 0.07 wt % in water, 1 b/s): 33.0 dyne/cm; Dynamic Surface Tension ([1]; 0.07 wt % in water, 6 b/s): 34.5 dyne/cm; Dynamic Surface Tension ([1]; 0.07 wt % in water, 15 b/s): 36.8 dyne/cm; Dynamic Surface Tension ([1]; 0.07 wt % in water, 20 b/s): 37.7 dyne/cm; solubility limit [2]: about 0.2 wt %
2 | CC(C)CC(C)NCCCOCCCNC(C)CC(C)C (stereo not shown) [APE/MIBK2] | 30.8 dyne/cm | 31.3 dyne/cm | 32.6 dyne/cm | 34.4 dyne/cm | 34.9 dyne/cm | 29.3 dyne/cm | 29.9 dyne/cm | 30.1 dyne/cm | 32.9 dyne/cm | 33.3 dyne/cm | – | – | – | – | – | 1.0 cm | 2 s | – | – | – | –
3 | CC(C)CC(C)NCCCOCCOCCCNC(C)CC(C)C (stereo not shown) [BAPE/MIBK2] | 35.5 dyne/cm | 36.0 dyne/cm | 37.2 dyne/cm | 38.7 dyne/cm | 39.2 dyne/cm | – | – | – | – | – | 31.6 dyne/cm | 32.0 dyne/cm | 32.9 dyne/cm | 33.8 dyne/cm | 34.1 dyne/cm | 2.6 cm | 8 s | 29.7 dyne/cm | 29.8 dyne/cm | 30.1 dyne/cm | Dynamic Surface Tension ([1]; 0.5 wt % in water, 15 b/s): 30.8 dyne/cm; Dynamic Surface Tension ([1]; 0.5 wt % in water, 20 b/s): 31.0 dyne/cm; solubility (in words) [2]: relatively high solubility
4 | CC(C)CC(C)NCCCOCCOCCOCCCNC(C)CC(C)C (stereo not shown) [BAPEE/MIBK2] | 39.2 dyne/cm | 39.7 dyne/cm | 40.8 dyne/cm | 42.0 dyne/cm | 42.2 dyne/cm | – | – | – | – | – | – | – | – | – | – | 3.1 cm | 5 s | 30.6 dyne/cm | 30.7 dyne/cm | 31.0 dyne/cm | Dynamic Surface Tension ([1]; 0.5 wt % in water, 15 b/s): 31.8 dyne/cm; Dynamic Surface Tension ([1]; 0.5 wt % in water, 20 b/s): 32.2 dyne/cm
